Results reported in US20240251785A1, “SMALL MOLECULE ANTAGONISTS AND AGONISTS OF ARTHROPOD KININ RECEPTORS FOR PEST CONTROL” (The Texas A&M University System, priority 2021, published 2024).
Like-named read-outs stand apart in the source and are kept apart here.

Legend:
[1] = system: vector-only (V/O) CHO-K1 cells; assay: Dose-response dual-addition calcium fluorescence assay on vector-only cells; format: cell-based
[2] = target: recombinant tick kinin receptor (BMLK3) (Rhipicephalus microplus, UniProt Q9NHA4); assay: Dose-response dual-addition calcium fluorescence assay on BMLK3 cells; format: cell-based; settings: for inhibition at 12 µM: read-out: Inhibitory Efficacy at 12 μM; for activity type in dose-response assay, in words: Rhimi-K-1 1 μmol L^−1
[3] = system: R. microplus kinin receptor; assay: High-throughput dual-addition calcium fluorescence screen on BMLK3 cells; format: cell-based, Rhipicephalus microplus; settings: for antagonist Io (%): compound 2 μmol L^−1, 5 min, then FFFSWGa 500 nmol L^−1
[4] = system: Human dermal fibroblasts (HDF) cells; assay: Cytotoxicity assay (resazurin); format: cell-based
[5] = V/O cells, second addition Rhimi-K-1 1 μmol L^−1, read-out: V/O antagonist IC50
[6] = summary of 36 validated antagonist hits, vector-only cell (V/O)
[7] = first addition, 20 concentrations 28 nM-25 μM, read-out: BMLK3 EC50
[8] = second addition Rhimi-K-1 1 μmol L^−1, read-out: BMLK3 IC50
[9] = summary of 36 validated antagonist hits, BMLK3 cells, read-out: BMLK3 EC50
[10] = summary of 36 validated antagonist hits, BMLK3 cells, read-out: BMLK3 IC50
[11] = Human dermal fibroblasts cells, tested at 20 μcool L^−1
[12] = Cricetulus griseus, CHO-K1, summary of 36 validated antagonist hits, vector-only cell (V/O)
[13] = virtual hit molecules, dual-addition assay, recombinant tick kinin receptor (BMLK3) cells, read-out: BMLK3 EC50
[14] = virtual hit molecules, dual-addition assay, recombinant tick kinin receptor (BMLK3) cells, read-out: BMLK3 antagonist IC50
[15] = Table 5 analogs, V/O cells, read-out: V/O antagonist IC50
[16] = Table 5 analogs, first addition, read-out: BMLK3 EC50
[17] = Table 5 analogs, second addition Rhimi-K-1 1 μmol L^−1, read-out: BMLK3 antagonist IC50
[18] = virtual hit molecules, dual-addition assay, vector-only cell (V/O)
[19] = virtual hit molecules, dual-addition assay, vector-only cell (V/O), read-out: V/O antagonist IC50

Sequence of recombinant tick kinin receptor (BMLK3) (Q9NHA4 entry or part of it): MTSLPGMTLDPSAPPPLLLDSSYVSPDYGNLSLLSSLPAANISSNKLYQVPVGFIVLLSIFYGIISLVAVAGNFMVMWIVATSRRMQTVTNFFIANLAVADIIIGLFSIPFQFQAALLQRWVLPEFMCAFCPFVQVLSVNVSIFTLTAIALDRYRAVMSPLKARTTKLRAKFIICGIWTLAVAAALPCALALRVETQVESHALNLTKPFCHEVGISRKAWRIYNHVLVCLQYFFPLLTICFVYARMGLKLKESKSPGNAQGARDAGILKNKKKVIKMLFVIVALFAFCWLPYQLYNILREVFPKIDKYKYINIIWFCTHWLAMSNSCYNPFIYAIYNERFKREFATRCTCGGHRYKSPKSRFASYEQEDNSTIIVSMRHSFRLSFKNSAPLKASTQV

Row | Structure (SMILES) | EC50 ([1]; V/O cells, first addition) [µM] | IC50 [1, 5] [µM] | EC50 [1, 6] [µM] | IC50 [1, 6] [µM] | Inhibitory Efficacy at 12 μM ([2]; 12 μM, BMLK3 cells) [%] | EC50 [2, 7] [µM] | IC50 [2, 8] [µM] | EC50 [2, 9] [µM] | IC50 [2, 10] [µM] | HDF average % growth inhibition [4, 11] [%] | further results
1 | C[C@@](O)(C#Cc1ccccc1)c1ccc(N2CCCCC2)c(F)c1 [SACC-0006795] | < 0.0285 | > 25 | < 0.0285 | > 25 | 33.05 | > 25 | 17.3 | > 25 | 17.3 | −1.773 | antagonist Io (%) [3]: 55%
2 | Cc1ccc(-c2csc3ncnc(NCc4ccco4)c23)cc1 [SACC-0033457] | 11.5 | 0.679 |  |  | 55.73 | 0.122 | 14.8 | 0.122 |  | 8.023 | antagonist Io (%) [3]: 63%
3 | CCCCCCCCn1c2c(c(=N)c3c1CCC3)CCCC2 [SACC-0050177] | > 25 | 12.3 | > 25 | 12.3 | 35.48 | 7.08 | > 25 | 7.08 | > 25 | 38.55 | 
4 | COc1ccc(S(=O)(=O)Nc2ccc(O)c(Sc3nc4ccccc4s3)c2)cc1 [SACC-0089495] |  |  |  |  |  |  |  |  |  | −2.817 | IC50 [1, 12]: 5.99 µM; EC50 ([1]; Cricetulus griseus, CHO-K1, virtual hit molecules, dual-addition assay, vector-only cell (V/O)): 9.06 µM; IC50 ([1]; Cricetulus griseus, CHO-K1, virtual hit molecules, dual-addition assay, vector-only cell (V/O), read-out: V/O antagonist IC50): 5.99 µM; inhibition at 12 µM ([2]; 12 μM, BMLK3 cells): 71.3%; EC50 [2, 13]: 3.04 µM; IC50 [2, 14]: 6.53 µM
5 | O=C(O)COc1ccc(Br)cc1/C=N/Nc1cccc2cccnc12 [SACC-0126875] | 4.61 | > 25 | 4.61 | > 25 | 59.47 | 5.73 | 8.51 | 5.73 | 8.51 | 7.477 | 
6 | O=C1C=CC(Nc2ccc([N+](=O)[O-])cc2)C1Nc1ccc([N+](=O)[O-])cc1 (centres unmarked) [SACC-0121252] | > 25 | 2.53 | > 25 | 2.53 | 42.68 | 0.177 | > 25 | 0.177 | > 25 | 4.83 | 
7 | C/N=c1\[nH]c2cc([N+](=O)[O-])c([N+](=O)[O-])cc2[nH]\c1=N\C [SACC-0010666] |  |  |  |  |  |  |  |  |  |  | EC50 ([1]; Cricetulus griseus, CHO-K1, V/O cells, first addition): 1.35 µM; IC50 ([1]; Cricetulus griseus, CHO-K1, V/O cells, second addition Rhimi-K-1 1 μmol L^−1, read-out: V/O antagonist IC50): 14.9 µM; IC50 [1, 12]: 14.9 µM; EC50 [2]: 0.914 µM; IC50 [2]: 0.808 µM; inhibition at 12 µM [2]: 4.47%; HDF average % growth inhibition ([4]; human, 48 h, 20 μmol L^−1): −4.62%
8 | Cc1ccc(C=C2SC(=S)N(NS(=O)(=O)c3ccc(C)cc3)C2=O)cc1 [SACC-0412061] |  |  | 5.5 | 2.71 | 48.16 |  |  | 0.978 | 0.509 | −1.013 | EC50 ([1]; Table 5 analogs, V/O cells): 5.5 µM; IC50 [1, 15]: 2.71 µM; activity type in dose-response assay, in words ([2]; BMLK3 cells): partial antagonists; EC50 [2, 16]: 0.978 µM; IC50 [2, 17]: 0.509 µM
9 | Cc1csc2ncnc(NCCc3ccc(Cl)cc3)c12 [SACC-0039590] |  |  | 1.63 | 5.58 | 69.87 |  |  |  |  | −13.23 | EC50 [1, 18]: 1.63 µM; IC50 [1, 19]: 5.58 µM
10 | CSc1nc2ccc(NS(=O)(=O)c3ccc(Cl)s3)cc2s1 [SACC-0099442] |  |  | 10.8 | 1.12 | 71.31 |  |  | 5.4 | 7.17 | −1.16 | EC50 [1, 18]: 10.8 µM; IC50 [1, 19]: 1.12 µM; activity type in dose-response assay, in words ([2]; BMLK3 cells): full agonist; EC50 [2, 13]: 5.4 µM; IC50 [2, 14]: 7.17 µM
11 | C/C(CCC(C)C)=N\N=C(/S)NCc1ccccc1 [SACC-0018618] | > 25 | > 25 | > 25 | > 25 | 55.77 | > 25 | 4.29 | > 25 | 4.29 | 7.327 | activity type in dose-response assay, in words ([2]; BMLK3 cells): full agonist; antagonist Io (%) [3]: 58%
12 | Cc1ccc(S(=O)(=O)Nc2ccc3nc(N)sc3c2)cc1 [SACC-0034373] |  |  | 2.49 | > 25 | 26.16 |  |  | 1.96 | 6.22 | −7 | EC50 [1, 18]: 2.49 µM; IC50 [1, 19]: > 25 µM; EC50 [2, 13]: 1.96 µM; IC50 [2, 14]: 6.22 µM
13 | Cc1ccc(S(=O)(=O)NN2C(=O)C(=Cc3ccc(F)cc3)SC2=S)cc1 [SACC-0412063] |  |  | 1.21 | > 25 | 0.61 |  |  | 24.2 | 0.627 | 2.277 | EC50 ([1]; Table 5 analogs, V/O cells): 1.21 µM; IC50 [1, 15]: > 25 µM; activity type in dose-response assay, in words ([2]; BMLK3 cells): very weak partial antagonists; EC50 [2, 16]: 24.2 µM; IC50 [2, 17]: 0.627 µM
14 | CCN1C=C/C(=C\C=C\c2cc[n+](CC)c3ccccc23)c2ccccc21 [SACC-0054132] |  |  | 2.56 | 0.207 | 37.34 |  |  | < 0.0285 | 3.69 | 9.037 | EC50 [1, 18]: 2.56 µM; IC50 [1, 19]: 0.207 µM; EC50 [2, 13]: < 0.0285 µM; IC50 [2, 14]: 3.69 µM
15 | COc1ccccc1-n1nnnc1S[C@@H](C)C(=O)c1ccc2c(c1)CCN2C(C)=O [SACC-0095062] | > 25 | < 0.0285 |  |  |  | > 25 | > 25 |  |  |  | validation mark in dose-response assay ([2]; Table 3): *** (molecules which are either off-target or of low activity (<25 μM)); agonist NPA (%) ([3]; compound 2 μmol L^−1, first addition, relative to FFFSWGa 500 nmol L^−1): 47%
